Reference: patent US10370388B2, “Heterocyclic compounds and methods of their use” (NOVARTIS AG, priority 2012, dated 2019)

Columns and labels:
[1] = tested on: NG108-15 neurite cells; experiment: AT2 receptor neurite outgrowth assay; assay type: cell-based; details: NG108-15 cells, in the presence of angiotensin II 0.1 μM, compound 0.003-10 μM
Procedure: Biological Example 3: AT2 Receptor Neurite Outgrowth Assay
The general methodology of Wallinder (2008) and references cited therein was used to assess the effect of the compounds of the present invention on neurite outgrowth. The assay was adapted for high content screening.
EMA1087 is a known AT2 receptor agonist described as “compound 21” in Wan et al. 2004. PD-123,319 is a known, commercially available AT2 receptor antagonist. The results were analyzed by immunofluorescence quantitative analysis. Neurite outgrowth was quantified with neurite average length using Cellomics software. Results are expressed as the mean±SEM, each conducted in triplicate. Statistical significance, compared with Ang II control: *p<0.05, **p<0.01, and ***p<0.001. NS: no significant difference. ND: not determined. FIGS. 1 to 5 show neurite outgrowth was inhibited by the AT2 receptor antagonists, PD-126,055 and compounds 6, 15, 21 and 28.

[2] = molecular target: AT2 receptor (Homo sapiens (Human), UniProt P50052); experiment: AT2 receptor binding assay ([125I]-CGP42112A, HEK293/AT2 receptor cell membranes); details: displacement of [125I]-CGP42112A
Chain of AT2 receptor (P50052 whole entry, species assumed): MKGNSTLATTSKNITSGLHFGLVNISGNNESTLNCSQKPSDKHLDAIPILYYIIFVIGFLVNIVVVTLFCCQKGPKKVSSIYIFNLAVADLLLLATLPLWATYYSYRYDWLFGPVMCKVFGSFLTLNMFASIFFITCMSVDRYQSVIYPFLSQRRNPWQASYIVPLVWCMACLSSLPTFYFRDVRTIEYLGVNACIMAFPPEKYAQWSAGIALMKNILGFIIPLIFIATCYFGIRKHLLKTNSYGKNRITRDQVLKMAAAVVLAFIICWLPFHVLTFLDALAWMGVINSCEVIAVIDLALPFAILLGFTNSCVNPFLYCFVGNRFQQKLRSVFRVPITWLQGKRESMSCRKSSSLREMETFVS
Procedure: Trypsin-EDTA (for preparation of 100 mL) • Trypsin 0.25 g • 2% EDTA 2 mL • PBS 98 mL • Dissolve trypsin in 2% EDTA and PBS completely; sterilize the solution by passing through a […] membrane filter; store at 4° C. • 2. […] Add slowly with stirring. • Dilute to 1 liter with ddH2O. • Sterilize the medium immediately by filtration. • Store at 4° C. • 3. TE buffer • 20 mM Tris-HCl, pH 7.4, • 5 mM EDTA • 4. Binding Assay Buffer • 50 mM Hepes, pH 7.4 • 5 mM MgCl2 • 1 mM CaCl2 • 0.2% BSA • 5.
Cells were ready for transfection after overnight incubation (the confluence reaches around 80%). • 75 μL Lipofectamine™2000 diluted in 6.25 mL OptiMEM I Reduced Serum Medium, was mixed gently, and incubated at room temperature for 5 minutes. 50 μg expression plasmid DNA diluted in 6.25 mL OptiMEM I Reduced Serum Medium without serum was mixed gently. • After the 5 minute incubation, the diluted DNA was combined with the diluted Lipofectamine™2000 (total volume is 12.5 mL).
Solutions of all compounds were prepared by microplate liquid handling equipment such as Janus or Precision 2000. Compounds, dissolved in DMSO were stored in a Freezer. Compounds were prepared from 30 mM in 100% DMSO.
All the compounds were diluted using Precision 2000 microplate liquid handling equipment. The top concentration of compound was 5 mM with 100% DMSO.
Step 3: Assay Plate Preparation (96 Well Plate)

[3] = molecular target: AT1 receptor (Homo sapiens (Human), UniProt P30556); experiment: AT1 receptor binding assay ([125I]-Sar1-Ile8-Angiotensin II, HEK293/AT1 receptor cell membranes); details: similar assay, at 10 μM
Chain of AT1 receptor (P30556 whole entry, species assumed): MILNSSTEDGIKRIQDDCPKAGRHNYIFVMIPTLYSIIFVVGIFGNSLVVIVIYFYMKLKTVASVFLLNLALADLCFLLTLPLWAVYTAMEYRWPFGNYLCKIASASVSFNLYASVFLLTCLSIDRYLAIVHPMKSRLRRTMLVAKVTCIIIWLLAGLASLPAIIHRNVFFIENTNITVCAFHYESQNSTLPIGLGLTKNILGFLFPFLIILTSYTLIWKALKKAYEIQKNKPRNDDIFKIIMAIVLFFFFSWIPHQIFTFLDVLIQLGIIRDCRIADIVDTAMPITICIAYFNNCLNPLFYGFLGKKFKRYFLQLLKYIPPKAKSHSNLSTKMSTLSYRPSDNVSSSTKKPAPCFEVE
Description: Biological Example 2: AT1 Receptor Binding
The same media, solutions, cell procedures and compound preparation was used as for Biological Example 1 but using HEK293/AT1 Receptor Transient Cells.

Structure (SMILES)	neurite outgrowth (neurite average length) [1]	IC50 [2] [µM]	AT1 receptor binding [3]
O=C(O)C1Cc2c(OCc3ccccc3)cccc2N1C(=O)C(c1ccccc1)c1ccccc1 (stereo not drawn) [Compound 15, 4-(benzyloxy)-1-(2,2-diphenylacetyl)indoline-2-carboxylic acid]	inhibited	–	–
O=C(O)[C@@H]1C[C@H](c2sccc2-c2ccccc2)CN1C(=O)C(c1ccccc1)c1ccccc1 [Compound 107, (2S,4S)-1-(2,2-diphenylacetyl)-4-(3-phenylthiophen-2-yl)-pyrrolidine-2-carboxylic acid]	–	0.461	–
CN(C)S(=O)(=O)NC(=O)[C@@H]1C[C@H](OCCCc2ccccc2)CN1C(=O)C(c1ccccc1)c1ccccc1 [Compound 112, (2S,4S)—N—(N,N-dimethylsulfamoyl)-1-(2,2-diphenylacetyl)-4-(3-phenylpropoxy)pyrrolidine-2-carboxamide]	–	–	—: No significant inhibition of binding of the radiolabelled ligand even at top concentration tested (10 μM). Compounds 6, 112, 136 and 138 were also analysed in a similar assay and showed no AT1 receptor binding at 10 μM.
CN(CCCc1ccc(F)cc1)[C@H]1C[C@@H](C(N)=O)N(C(=O)C(c2ccccc2)c2ccccc2)C1 [Compound 136, (2S,4S)-1-(2,2-diphenylacetyl)-4-((3-(4-fluorophenyl)propyl)(methyl)amino)pyrrolidine-2-carboxamide]	–	0.089	—: No significant inhibition of binding of the radiolabelled ligand even at top concentration tested (10 μM). Compounds 6, 112, 136 and 138 were also analysed in a similar assay and showed no AT1 receptor binding at 10 μM.
CN(CCCc1ccc(F)cc1)[C@H]1C[C@@H](C#N)N(C(=O)C(c2ccccc2)c2ccccc2)C1 [Compound 137, (2S,4S)-1-(2,2diphenylacetyl)-4-((3-(4-fluorophenyl)propyl)(methyl)amino)pyrrolidine-2-carbonitrile]	–	0.173	–
